# Results as given in patent publication US11866430B2, “Naphthyridinone compounds useful as T cell activators” (priority 2018, dated 2024).
# Like-named read-outs stand apart in the source and are kept apart here.
# Key:
# [1] = system: pre-activated CD4 T cells and Raji cells; test: Raji CD4 T Cell IL2 Assay; format: cell-based
# [2] = target: human DGKα (Homo sapiens (Human), UniProt P23743); test: biochemical; conditions: detergent/lipid micelle substrate; read-out: DGKα IC50
# Procedure, shortened: (§1)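 Enzymes were baculovirus/Sf9 full-length human DGKα or DGKζ with His tag. The substrate was PS/DAG in octyl glucoside micelles, in MOPS pH 7.5 buffer with NaCl, MgCl2, CaCl2 and DTT.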
# [3] = target: human DGKζ (Homo sapiens (Human), UniProt Q13574); test: DGKζ assay (detergent/lipid micelle substrate); format: biochemical; conditions: detergent/lipid micelle substrate; read-out: DGKζ IC50
# Sequence of human DGKζ (Q13574 other isoform, or with tags, fused parts or gaps): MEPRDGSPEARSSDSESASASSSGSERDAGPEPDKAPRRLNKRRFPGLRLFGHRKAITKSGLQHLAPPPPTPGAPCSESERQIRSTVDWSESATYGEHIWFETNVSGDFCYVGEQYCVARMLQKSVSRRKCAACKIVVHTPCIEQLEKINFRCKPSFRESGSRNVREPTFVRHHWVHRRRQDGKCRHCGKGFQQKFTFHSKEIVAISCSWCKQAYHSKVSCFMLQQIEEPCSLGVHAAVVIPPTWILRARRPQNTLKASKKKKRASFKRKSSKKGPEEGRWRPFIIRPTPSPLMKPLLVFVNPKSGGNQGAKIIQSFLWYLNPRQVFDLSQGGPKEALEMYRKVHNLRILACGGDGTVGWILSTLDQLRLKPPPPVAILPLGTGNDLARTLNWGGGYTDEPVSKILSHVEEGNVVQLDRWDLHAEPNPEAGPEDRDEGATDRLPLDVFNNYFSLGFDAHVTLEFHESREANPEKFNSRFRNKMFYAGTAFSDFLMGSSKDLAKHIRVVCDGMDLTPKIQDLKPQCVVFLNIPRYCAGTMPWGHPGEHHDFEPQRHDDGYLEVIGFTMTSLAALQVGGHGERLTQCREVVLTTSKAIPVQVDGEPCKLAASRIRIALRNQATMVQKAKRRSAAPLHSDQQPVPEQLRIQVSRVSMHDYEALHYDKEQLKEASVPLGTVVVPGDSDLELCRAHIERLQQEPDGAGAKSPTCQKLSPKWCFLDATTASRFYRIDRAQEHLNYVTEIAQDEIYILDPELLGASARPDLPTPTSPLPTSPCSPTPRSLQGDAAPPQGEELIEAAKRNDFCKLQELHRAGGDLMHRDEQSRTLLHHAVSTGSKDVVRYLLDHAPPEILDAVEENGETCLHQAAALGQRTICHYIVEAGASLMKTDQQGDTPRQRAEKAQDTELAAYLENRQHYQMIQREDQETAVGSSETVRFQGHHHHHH
# Procedure, shortened: as §1
# Sequence of human DGKα (P23743 other isoform, or with tags, fused parts or gaps): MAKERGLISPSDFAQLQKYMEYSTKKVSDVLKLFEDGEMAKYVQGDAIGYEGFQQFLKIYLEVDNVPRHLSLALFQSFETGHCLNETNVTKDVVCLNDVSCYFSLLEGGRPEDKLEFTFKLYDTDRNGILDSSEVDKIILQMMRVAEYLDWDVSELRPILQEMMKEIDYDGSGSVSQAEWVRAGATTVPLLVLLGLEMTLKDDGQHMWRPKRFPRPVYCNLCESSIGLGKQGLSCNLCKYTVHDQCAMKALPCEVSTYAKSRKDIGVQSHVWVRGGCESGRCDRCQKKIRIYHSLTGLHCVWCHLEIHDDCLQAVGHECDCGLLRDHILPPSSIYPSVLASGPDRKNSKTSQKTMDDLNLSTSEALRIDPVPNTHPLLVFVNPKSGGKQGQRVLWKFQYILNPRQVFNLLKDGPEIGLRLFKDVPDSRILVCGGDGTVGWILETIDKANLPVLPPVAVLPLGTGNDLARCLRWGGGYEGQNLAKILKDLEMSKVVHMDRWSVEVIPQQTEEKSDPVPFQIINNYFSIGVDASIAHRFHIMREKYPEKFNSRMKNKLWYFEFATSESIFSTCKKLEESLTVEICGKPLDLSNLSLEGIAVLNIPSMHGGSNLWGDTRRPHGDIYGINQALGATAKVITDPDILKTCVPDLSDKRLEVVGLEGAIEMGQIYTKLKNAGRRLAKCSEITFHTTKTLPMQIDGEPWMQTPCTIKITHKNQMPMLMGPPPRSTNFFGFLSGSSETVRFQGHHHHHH
SMILES,"IC50 ([1]; Homo sapiens, Raji)",IC50 [2],IC50 [3],IC50 [1]
"Cn1c(=O)c(C#N)c(N2CCN(Cc3cccc(Cl)c3O)CC2)c2nc(Br)ccc21 [Example 278, 6-bromo-4-{4-[(3-chloro-2-hydroxyphenyl)methyl]piperazin-1-yl}-1-methyl-2-oxo-1,2-dihydro-1,5-naphthyridine-3-carbonitrile]",87 nM,350 nM,> 81000 nM,
"C#CCOc1ccccc1C(c1ccc(F)cc1)N1CCN(c2c([N+](=O)[O-])c(=O)n(C)c3ccc(C#N)nc23)CC1 (single isomer, unassigned) [Example 101, 8-(4-((4-fluorophenyl)(2-(prop-2-yn-1-yloxy)phenyl)methyl)piperazin-1-yl)-5-methyl-7-nitro-6-oxo-5,6-dihydro-1,5-naphthyridine-2-carbonitrile]",190 nM,15000 nM,27000 nM,
"Cn1c(=O)c(C#N)c(N2CCN(Cc3c(O)cccc3Cl)CC2)c2nc(Cl)ccc21 [Example 267, 6-chloro-4-{4-[(2-chloro-6-hydroxyphenyl)methyl]piperazin-1-yl}-1-methyl-2-oxo-1,2-dihydro-1,5-naphthyridine-3-carbonitrile]",48 nM,310 nM,> 240000 nM,
"COc1ccc(CN2CCN(c3c(C#N)c(=O)n(C)c4ccc(Cl)nc34)CC2)cc1O [Example 353, 6-chloro-4-{4-[(3-hydroxy-4-methoxyphenyl)methyl]piperazin-1-yl}-1-methyl-2-oxo-1,2-dihydro-1,5-naphthyridine-3-carbonitrile]",1900 nM,65 nM,> 240000 nM,
"Cn1c(=O)c(C#N)c(N2CCN(Cc3cccc(O)c3)CC2)c2nc(Cl)ccc21 [Example 351, 6-chloro-4-{4-[(3-hydroxyphenyl)methyl]piperazin-1-yl}-1-methyl-2-oxo-1,2-dihydro-1,5-naphthyridine-3-carbonitrile]",1500 nM,360 nM,190000 nM,
"N#CCn1c(=O)c([N+](=O)[O-])c(N2CCN(C(c3ccc(F)cc3)c3ccc(F)cc3)CC2)c2nc(C#N)ccc21 [Example 152, 8-(4-(bis(4-fluorophenyl)methyl)piperazin-1-yl)-5-(cyanomethyl)-7-nitro-6-oxo-5,6-dihydro-1,5-naphthyridine-2-carbonitrile]",150 nM,150000 nM,3900 nM,
"Cn1c(=O)c(C#N)c(N2CCN(Cc3cc(Cl)ccc3O)CC2)c2nc(Cl)ccc21 [Example 370, 6-chloro-4-{4-[(5-chloro-2-hydroxyphenyl)methyl]piperazin-1-yl}-1-methyl-2-oxo-1,2-dihydro-1,5-naphthyridine-3-carbonitrile]",> 100000 nM,170 nM,> 240000 nM,
"N#Cc1c(N2CCN(C(c3ccc(F)cc3)c3ccc(F)cc3)CC2)c2nc(Br)ccc2n(CC2CC2)c1=O [Example 161, 4-(4-(bis(4-fluorophenyl)methyl)piperazin-1-yl)-6-bromo-1-(cyclopropylmethyl)-2-oxo-1,2-dihydro-1,5-naphthyridine-3-carbonitrile]",5700 nM,> 240000 nM,> 81000 nM,
"Cn1c(=O)c(C#N)c(N2CCN(CC(O)c3ccc(F)cc3)CC2)c2nc(Br)ccc21 (single isomer, unassigned) [Example 29, 6-bromo-4-{4-[2-(4-fluorophenyl)-2-hydroxyethyl]piperazin-1-yl}-1-methyl-2-oxo-1,2-dihydro-1,5-naphthyridine-3-carbonitrile]",,570 nM,> 240000 nM,2300 nM
"Cn1c(=O)c(C#N)c(N2CCN(Cc3cccc4cc[nH]c34)CC2)c2nc(Cl)ccc21 [Example 303, 6-chloro-4-{4-[_(1H-indol-7-yl)methyl]piperazin-1-yl}-1-methyl-2-oxo-1,2-dihydro-1,5-naphthyridine-3-carbonitrile]",180 nM,900 nM,> 240000 nM,
